The text below walks through data of PubChem BioAssay AID1963962 (Molecular Pharmacology Branch, DTP, NCI, 2024).

The subject of this test is 967376-340-R-J2-PDC multicell spheroid viability. Kind of test: Anticancer human tumor 967376-340-R-J2-PDC patient-derived colon adenocarcinoma cell line growth inhibition [PI3K]. The note with it: for viability, T/C: stronger effect = lower value. The source says: Combinatorial screen of targeted agents with the PI3K inhibitors inavolisib, alpelisib, duvelisib, and copanlisib in multi-cell type tumor spheroids
A high-throughput screen of multi-cell type tumor spheroids was designed to identify active combinations of targeted small molecules and PI3K pathway inhibitors. Complex spheroids include a stromal component modeled by human endothelial cells (HUVEC) and fibroblasts modeled by human mesenchymal stem cells (MSCs). The concentration ranges selected for each drug and investigational agent were based upon clinically achievable concentrations if the clinical Cmax of the agent was known.
Compounds. The drugs and investigational agents: inavolisib (NSC800729), alpelisib (NSC765974), duvelisib (NSC772469), copanlisib (NSC816437), ipatasertib (NSC767898), afuresertib (NSC778305), talazoparib (NSC767125), sapanisertib (NSC764658), selumetinib (NSC741078), tovorafenib (DAY101, NSC766906), vemurafenib (NSC761431), ravoxertinib (NSC781343), sotorasib (NSC818433), MRTX1133 (NSC 836407), abemaciclib (NSC 768073), palbociclib (NSC758247), venetoclax (NSC 766270), SY5609 (NSC837396), enzalutamide (NSC755605), and darolutamide (NSC825331), were obtained from the National Cancer Institute (NCI) Developmental Therapeutics Program Chemical Repository. The FDA-approved anticancer drug set is available from the NCI Developmental Therapeutics Program. […] The stock solutions were prepared in dimethyl sulfoxide (DMSO, Sigma-Aldrich, St. Louis, MO, cat. D2650) at 800-fold the tested concentration and stored at -70 degrees C prior to their use. All drugs and investigational agents were tested over a range starting from a high concentration at or near the clinical Cmax and decreasing in half-log increments. If the clinical Cmax for an agent had not been determined, the highest concentration tested was 10 microM.
Cell Culture. All cells were maintained in an incubator at 37 degrees C and 5% CO2 with 95% humidity. The PDC lines were cultured according to standard operating procedures established by the NCI PDMR (https://pdmr.cancer.gov/sops/default.htm). All PDCs were thawed and cultured in Matrigel-coated flasks prepared with a working solution of 1X Ham's F-12 nutrient mix, without supplementation (Invitrogen, Waltham, MA, cat. 11765054), 100 U/mL penicillin-streptomycin (Invitrogen, cat. 15140122), and 2.5% Matrigel (Corning Inc., Corning, NY, cat. 354248) for the first three passages. The 354836-022-R-J1-PDC, 475296-252-R-J1-PDC, and 997726-040-R-J2-PDC lines were cultured in 6A media, which includes advanced DMEM/F-12 (Thermo Fisher Scientific, cat. 12634028), 10 mM HEPES (Thermo Fisher Scientific, cat. 15630080), 1X GlutaMAX supplement (Thermo Fisher Scientific, cat. 35050061), 0.1 mg/mL primocin (InvivoGen, San Diego, CA, cat. ant-pm-2), 10% defined fetal bovine serum, heat inactivated (HyClone Laboratories Inc., Logan, UT, cat. SH30070.03HI), 50% L-WRN conditioned media (ATCC, cat. CRL-3276), 1.25 mM N-Acetyl-L-cysteine (Sigma-Aldrich, cat. A9165), 10 mM nicotinamide (Sigma-Aldrich, cat. N0636), 1X B-27 supplement (Thermo Fisher Scientific, cat. 17504044), 1X N-2 supplement (Thermo Fisher Scientific, cat. 17502048), and 10 microM Y-27632 dihydrochloride (Tocris Bioscience, Bristol, United Kingdom, cat. 1254). The 624824-186-R-J2-PDC line was cultured in 6C/Colon 1B media, which includes all 6A media components plus 50 ng/mL human EGF recombinant protein (Thermo Fisher Scientific, cat. PHG0311). […]

Where [1] appears, read: compound alone, run of 06/13/2023.

Each structure is given as a SMILES string. Where “and” joins values, the source holds several entries; their conditions need not be identical. Equal values may be shown once.
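Further: spheroids exposed to agents for 7 days before read-out.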
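Wherever viability, T/C is given: luminescence used as surrogate of cell viability.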

Consider `CC(=O)c1c(C)c2cnc(Nc3ccc(N4CCNCC4)cn3)nc2n(C2CCCC2)c1=O`, for which the viability, T/C – broadly, the result in the treated group divided by that in the control group, in per cent – (compound 0.000316 µM) was 101% [middle of 4 runs]; the viability, T/C (compound 0.001 µM) is 95.8% [middle of 4 runs]; the viability, T/C (compound 0.00316 µM) was 103% [middle of 4 runs]; the viability, T/C (compound 0.01 µM) was 98.9% [middle of 4 runs]; the viability, T/C (compound 0.0316 µM) is 118% (2×) and 120% and 81.9%; the viability, T/C (compound 0.1 µM) was 79% [middle of 4 runs]. For the same compound, the IC50 (in general, the midpoint of a concentration-inhibition curve) (curve of compound) is more than 100 nM.

Regarding `CC(C)NCC(C(=O)N1CCN(c2ncnc3c2C(C)CC3O)CC1)c1ccc(Cl)cc1` (stereo unspecified), the viability, T/C was 107% [middle of 4 runs] (compound 0.0316 µM); 91.1% [middle of 4 runs] (compound 0.1 µM); 90.2% [middle of 4 runs] (compound 0.316 µM); 88% [middle of 4 runs] (compound 1 µM); 103% [middle of 4 runs] (compound 3.16 µM); 83.2% [middle of 4 runs] (compound 10 µM). Besides, the IC50 (curve of compound) is more than 10000 nM.

Regarding `CC(C)n1nc(-c2ccc3oc(N)nc3c2)c2c(N)ncnc21`, the viability, T/C runs as follows: (compound 0.000316 µM) 103% [middle of 4 runs]; (compound 0.00316 µM) 101% [middle of 4 runs]; (compound 0.0316 µM) 80.7% [middle of 4 runs]; (compound 0.1 µM) 59.2% [middle of 4 runs]. Also, the IC50 (curve of compound) was > 100 nM and 96.7 nM.

On to `CC(Nc1ccc2c(c1)OCCn1cc(N3C(=O)OCC3C(F)F)nc1-2)C(N)=O` (stereo unspecified), for which the viability, T/C was 86.9% [middle of 7 runs] (compound 0.0316 µM), 81.4% [middle of 7 runs] (compound 0.1 µM), 67% [middle of 7 runs] (compound 0.316 µM) and 52.7% [middle of 7 runs] (compound 1 µM).

Turning to `CC(Nc1ncnc2nc[nH]c12)c1cc2cccc(Cl)c2c(=O)n1-c1ccccc1` (stereo unspecified), the viability, T/C by setting is: (compound 0.0316 µM) 94.5% [middle of 8 runs]; (compound 0.316 µM) 89% [middle of 8 runs]; (compound 1 µM) 94.5% [middle of 8 runs]. Under setting [1], the IC50 is more than 10000 nM.

Consider `CCCS(=O)(=O)Nc1ccc(F)c(C(=O)c2c[nH]c3ncc(-c4ccc(Cl)cc4)cc23)c1F`, for which the viability, T/C (compound 0.0316 µM) was 102% [middle of 4 runs]; the viability, T/C (compound 0.1 µM) is 87.8% [middle of 4 runs]; the viability, T/C (compound 0.316 µM) was 94.6% [middle of 4 runs]; the viability, T/C (compound 3.16 µM) is 104% [middle of 4 runs]; the viability, T/C (compound 10 µM) was 56.4% [middle of 4 runs]. Moreover, the IC50 (curve of compound) was > 10000 nM and 9140 nM.

In the case of `CCN1CCN(Cc2ccc(Nc3ncc(F)c(-c4cc(F)c5nc(C)n(C(C)C)c5c4)n3)nc2)CC1`, the viability, T/C by setting is: (compound 0.00316 µM) 110% [middle of 4 runs]; (compound 0.01 µM) 93.5% [middle of 4 runs]; (compound 0.0316 µM) 94.2% [middle of 4 runs]; (compound 0.1 µM) 82% [middle of 4 runs]; (compound 0.316 µM) 87% [middle of 4 runs]; (compound 1 µM) 74% [middle of 4 runs]. Also, the IC50 (curve of compound) is more than 1000 nM.

With `COc1c(OCCCN2CCOCC2)ccc2c3n(c(=NC(=O)c4cnc(N)nc4)nc12)CCN3`, the viability, T/C reads like this: (compound 0.01 µM) 85.7% [middle of 8 runs]; (compound 0.0316 µM) 79.9% [middle of 8 runs]; (compound 0.1 µM) 60.7% [middle of 8 runs]; (compound 0.316 µM) 47.8% [middle of 8 runs]; (compound 1 µM) 38.5% [middle of 8 runs]. Further, the IC50 under setting [1] was 212 nM [middle of 8 runs].

On to `Cn1cnc2c(F)c(Nc3ccc(Br)cc3Cl)c(C(=O)NOCCO)cc21`, for which the viability, T/C reads like this: (compound 0.00949 µM) 89.9% [middle of 4 runs]; (compound 0.03 µM) 97.7% [middle of 4 runs]; (compound 0.0949 µM) 87.6% [middle of 4 runs].

For the compound `Cn1ncnc1[C@H]1c2n[nH]c(=O)c3cc(F)cc(c23)N[C@@H]1c1ccc(F)cc1`, the viability, T/C is, setting by setting: (compound 0.000316 µM) 78.6% and 114% and 95.8%; (compound 0.001 µM) 82.5% and 93.1% and 84.2%; (compound 0.00316 µM) 90.3% and 94.6% and 70.5%; (compound 0.01 µM) 103% and 104% and 90.4%; (compound 0.0316 µM) 93.2% and 88.8% and 97.9%; (compound 0.1 µM) 92.5% and 99.6% and 94.7%. Under “curve of compound”, the IC50 was more than 100 nM.
